Assays:
COS-7 cells [1] = assay: Ratio imaging of intracellular tryptophan in perfused COS-7 cells expressing FLIPW-CTYT (uptake and exchange); type: cell-based, monkey; details: for tryptophan export from tryptophan-preloaded cells (counterexchange): extracellular amino acids at 100 μM, DL-HK 200-1000 μM; for effect on the uptake rate of 100 μM L-tryptophan: inhibitors at 5 mM
Procedure: (§1) Tissue culture and transfection. For cytosolic expression in COS-7 cells, the gene encoding CTYT was amplified by PCR with primers encoding unique BamHI and EcoRI restriction sites at the 5′ and 3′ end, respectively, and cloned into BamHI/EcoRI digested peDNA3.1(+) vector (Invitrogen), resulting in plasmid pTK222. COS-7 cells were grown in Dulbecco's modified Eagle's medium (high glucose; DMEM, Gibco) with 10% fetal calf serum and 50 μg; ml penicillin and 50 μg/ml streptomycin (Gibco). Cells were cultured at 37° C. and 5% CO2. For imaging, cells were cultured in 8-well LabTekII German tissue culture glass slides (Nalg Nunc International) and transiently transfected at 50-70% confluence using Lipofectamine 2000 Reagent (Invitrogen) in Opti-MEM I reduced serum medium (Gibco): After transfection, cells were cultured for 16 hours in Opti-MEM followed by 3 hours in DMEM prior to imaging.
Imaging. Ratio imaging was performed on an inverted fluorescence microscope (DM IRE2, Leica) with a Quant EM digital camera (Photometrics) and 20× oil immersion, 63× water immersion lenses (HC PL APO 20×/0.7 or HCX PL APO, Leica, Germany). Dual emission intensity ratios were simultaneously recorded using a DualView with an OI-5-EM filter set (eCFP 480/30; eYFP 535/40; Optical 17 Insights, USA) and Metafluor 6.3r6 software (Molecular Devices, USA). A Sutter Instruments Lambda DG4 provided excitation. Images were acquired within the linear detection range of the camera and exposure times varied between 50 to 200 ms, depending on the expression level, with software binning between 2 and 3. […] Cells were perfused with Tyrode's buffer at flow rates of 1.0 ml/min in a vacuum chamber with a total volume of 0.1 ml. Inhibitors BCH and MeIAB were used at 5 mM concentrations. For determination of the substrate specificity of the tryptophan exchange, all 20 amino acids were tested at 100 μM concentrations.

FLIPW-CTYT = molecular target: T1, FLIPW-CTYT (Escherichia coli, UniProt P0A881); assay: In vitro FRET titration of FLIPW-CTYT with tryptophan substrates and kynurenines; type: binding, E. coli; details: data not shown
T1 construct: Venus (YFP variant); made in house; host or cells: E. coli BL21(DE3)gold
Procedure: (§2) In vitro characterization of FLIPW and FLIPpur sensors. […] The eCFP emission used for the ratio calculation was determined at 485 nm. Protein was diluted to give Venus/eYFP readouts of 20,000 to 30,000 at a manual gain between 70-75. By using the change in FRET ratio upon binding of ligand, affinity constants (Kd) were determined by fitting the titration curves to a single-site-binding isotherm: R=Rapo+(Rsat−Rapo)·(n·[L])/(Kd+[L]) with [L], ligand concentration; n, number of equal binding sites; R, ratio; Rapo, ratio in the absence of ligand; and Rsat, ratio at saturation with ligand. Three independent protein preparations were analyzed and each protein preparation was analyzed in triplicate.

unmodified TrpR = unmodified TrpR (Escherichia coli, UniProt P0A881); details: cited from earlier work
FLIPW-CTY = molecular target: T2, FLIPW-CTY (Escherichia coli, UniProt P0A881); assay: In vitro FRET titration of FLIPW-CTY with tryptophan substrates; type: binding, E. coli
T2 construct: fused on or other part: eCFP at the N-terminus and Venus (YFP variant) at the C-terminus as FRET reporter handles; pRSETb vector leader; Gateway att-derived linkers
Procedure: as §2

COS-7 cells [2] = details: read-out: apparent KM for combined transport and metabolism; 96-well microplate, Michaelis-Menten fit of FRET increase rate, 0.05-25 μM L-tryptophan
Procedure: as §1

LAT1 = LAT1 (Homo sapiens, UniProt Q01650); details: oocytes; sum of free, incorporated and degraded tryptophan; cited from earlier work
LAT1, sequence (Q01650 whole entry, the tested form may be a part): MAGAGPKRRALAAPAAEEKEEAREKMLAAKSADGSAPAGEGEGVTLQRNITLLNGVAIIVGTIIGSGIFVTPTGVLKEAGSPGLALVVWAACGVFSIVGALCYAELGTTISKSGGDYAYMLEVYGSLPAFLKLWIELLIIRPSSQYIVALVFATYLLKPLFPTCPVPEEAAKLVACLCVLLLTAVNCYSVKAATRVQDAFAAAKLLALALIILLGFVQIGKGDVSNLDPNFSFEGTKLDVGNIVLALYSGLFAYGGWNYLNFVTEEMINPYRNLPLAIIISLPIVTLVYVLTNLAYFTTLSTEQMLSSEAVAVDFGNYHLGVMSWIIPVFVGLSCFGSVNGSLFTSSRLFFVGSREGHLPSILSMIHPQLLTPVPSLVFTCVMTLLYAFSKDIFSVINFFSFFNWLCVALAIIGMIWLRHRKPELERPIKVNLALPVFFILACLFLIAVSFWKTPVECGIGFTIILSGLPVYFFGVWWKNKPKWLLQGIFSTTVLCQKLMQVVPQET

KB cells = assay: FRET imaging of intracellular tryptophan in interferon-gamma treated KB cells; type: cell-based, human; details: IFNγ 500 U/ml, perfusion with Tyrode's buffer
Procedure: It was also assessed whether affecting the metabolism of tryptophan could be monitored using the FRET nanosensors. The induction of indoleamine 2,3-dioxygenase (IDO) by interferon-gamma in KB cells has been described by Ozaki et al. (Proc. Natl. Acad. Sci. U.S.A. (1988)85: 1242-1246). Indoleamine 2,3-dioxygenase degrades tryptophan to formyl-kynurenine in the cytosol. Accordingly, KB cells were seeded at 10%, 25%, 50% dilution (derived from a suspension that was from ˜90% confluent plate). Interferon gamma (IFNγ) was added at 500 and 1000 U/ml. KB cells used as a control (i.e. no IFNγ) were seeded at 10% dilution only. KB cells were incubated in growth medium (MEM-alpha, 10° A FBS (fetal bovine serum), penicillin/streptomycin) and then in OPTIMEM for 4 days prior to imaging. Cells were transfected (in OPTIMEM) with the pTK222c construct 1 day prior to imaging. IFNγ was maintained during transfection in OPTIMEM. Three hours prior to imaging, the cells were incubated in growth medium (containing IFNγ in the respective cultures). After three hours, the growth medium was exchanged with Tyrode's solution and the cells were kept in incubation chamber until analysis. The cells were perfused with 1 μM, 5 μM, 50 μM, and 100 μM L-tryptophan in Tyrode's solution.

CSCC[C@H](N)C(=O)O [methionine]
tryptophan export from tryptophan-preloaded cells (counterexchange) (COS-7 cells [1]): able to promote tryptophan export

N[C@@H](Cc1c[nH]cn1)C(=O)O [histidine, L-histidine]
tryptophan export from tryptophan-preloaded cells (counterexchange) (COS-7 cells [1]): able to promote tryptophan export

Nc1c(O)cccc1C(=O)O [HAA, hydroxy-anthranilic acid]
tryptophan export from tryptophan-preloaded cells (counterexchange) (COS-7 cells [1]): did not result in tryptophan export | FLIPW-CTYT response or interference with tryptophan binding in vitro (FLIPW-CTYT): did not result in a FLIPW-CTYT response or interfere with tryptophan binding to the sensor

NC1(C(=O)O)CC2CCC1C2 (stereo not drawn) [BCH, 2-aminobicyclo-(2,2,1)-heptane-2-carboxylic acid]
effect on the uptake rate of 100 μM L-tryptophan (COS-7 cells [1]): decreased the uptake of tryptophan

N[C@@H](Cc1ccccc1)C(=O)O [phenylalanine]
tryptophan export from tryptophan-preloaded cells (counterexchange) (COS-7 cells [1]): able to promote tryptophan export

N[C@@H](Cc1ccc(O)cc1)C(=O)O [tyrosine]
tryptophan export from tryptophan-preloaded cells (counterexchange) (COS-7 cells [1]): able to promote tryptophan export

Nc1c(O)cccc1C(=O)CC(N)C(=O)O (stereo not drawn) [HK, 3-hydroxy-kynurenine]
tryptophan export from tryptophan-preloaded cells (counterexchange) (COS-7 cells [1]): resulted in reduction of the fluorophore emission ratios in the COS-7 cells, evidencing tryptophan export | FLIPW-CTYT response or interference with tryptophan binding in vitro (FLIPW-CTYT): did not result in a FLIPW-CTYT response or interfere with tryptophan binding to the sensor

CC[C@H](C)[C@H](N)C(=O)O [isoleucine]
tryptophan export from tryptophan-preloaded cells (counterexchange) (COS-7 cells [1]): able to promote tryptophan export

CC(C)C[C@H](N)C(=O)O [leucine]
tryptophan export from tryptophan-preloaded cells (counterexchange) (COS-7 cells [1]): able to promote tryptophan export

N[C@H](Cc1c[nH]c2ccccc12)C(=O)O [D-tryptophan]
reduced affinity of unmodified TrpR compared to L-tryptophan (unmodified TrpR): 20 fold | concentration for decrease of FRET ratio relative to L-tryptophan (FLIPW-CTY): about 5 fold

CC(C)[C@H](N)C(=O)O [valine]
tryptophan export from tryptophan-preloaded cells (counterexchange) (COS-7 cells [1]): able to promote tryptophan export

CNC(C)(C)C(=O)O
effect on the uptake rate of 100 μM L-tryptophan (COS-7 cells [1]): did not decrease uptake rates

N[C@@H](Cc1c[nH]c2ccccc12)C(=O)O [L-tryptophan]
affinity of the cells for combined uptake and metabolism of tryptophan (COS-7 cells [1]; perfusion imaging, Michaelis-Menten fit): 2.6 ± 1.1 µM | Km (COS-7 cells [2]): 0.88 ± 0.27 µM | affinity of LAT1 for tryptophan uptake (LAT1): 21.4 µM

Nc1ccccc1C(=O)CC(N)C(=O)O (stereo not drawn) [K, kynurenine]
tryptophan export from tryptophan-preloaded cells (counterexchange) (COS-7 cells [1]): resulted in reduction of the fluorophore emission ratios in the COS-7 cells, evidencing tryptophan export | FLIPW-CTYT response or interference with tryptophan binding in vitro (FLIPW-CTYT): did not result in a FLIPW-CTYT response or interfere with tryptophan binding to the sensor

B1: IFNγ: cytokine interferon gamma, induces indoleamine 2,3-dioxygenase in KB cells (protein, UniProt P01579 24-161, looked up)
Interferon gamma: QDPYVKEAENLKKYFNAGHSDVADNGTLFLGILKNWKEESDRKIMQSQIVSFYFKLFKNFKDDQSIQKSVETIKEDMNVKFFNSNKKKRDDFEKLTNYSVTDLNVQRKAIHELIQVMAELSPAAKTGKRKRSQMLFRG
effect on intracellular tryptophan concentration (KB cells): lower the intracellular tryptophan concentration
